Patent EP0035270A2, “Heterocyclic compounds, compositions thereof, their preparation and use” (THE WELLCOME FOUNDATION LIMITED, priority 1980, dated 1981)

Experiments:
LD50's in mice = conditions: mouse, in vivo, ip; i.p. administration to mice
Procedure: The LD50's of compounds of formula were determined by conventional techniques by i.p. administration to mice.

[1] = Effect of pyrazolidinones on bodyweight of rats (single oral dose); type: in vivo; conditions: 0.22 m moles/kilogram bodyweight, two days after administration
Procedure: The compound of formula (I) prepared by the methods described in Examples 1 and 2 were administered orally to rats at a dose corresponding to 0.22 m moles/kilogram bodyweight. Two days after administration the weight of the treated rats was compared with control and the difference expressed as a percentage of the weight of the control animals.

[2] = Effect of 1-n-decyl pyrazolidin-3-one on rat bodyweight and food consumption; type: in vivo, Male Sprague-Dawley rats
Procedure: Male Sprague-Dawley rats were acclimatized as described in Example 6. The Rats (approx. 300 grams) were housed individually to present measurement of food consumption as well as bodyweight. Animals were treated once daily by oral […] guage either with saline or with 1-n-decyl pyrazolidin-3-one (25 mg/kg) in saline vehicle. Measurement of bodyweight and food consumption was […] during the recovery days, when treatment with drug has stopped.

[3] = Effect of varying daily oral doses of 1-n-decyl pyrazolidin-3-one on rat bodyweight; type: in vivo, Male Sprague-Dawley rats; conditions: for Percent Change from Initial Bodyweight (Mean ± S.E.M.) Day 5: Day 5, rats approx. 575 grams; for Percent Change from Initial Bodyweight (Mean ± S.E.M.) Day 10: Day 10, rats approx. 575 grams
Procedure: Male Sprague-Dawley rats were acclimatized to laboratory conditions for approximately four weeks prior to the experiment being carried out. The rats were maintained on a 12 hr/12 hr light dark cycle and had continuous access to food and water. Rats weighing approx. 575 grams were housed 4 to a cage and each rat treated daily with an oral injection of either saline vechicle or one of three doses of 1-n-decylpyrazolidinone dissolved in saline vehicle. The saline vehicle was prepared fresh each day.

With `CCCCCCCCCCCCCCN1CCC(=O)N1.Cl` [CH3(CH2)13-, 1-(n-tetradecyl)-3-pyrazolidone hydrochloride] the LD50 (LD50's in mice) was 350 mg/kg.
In the case of `CCCCCCCCCCN1CCC(=O)N1.Cl` [n-decyl, 1-(n-decyl)-3-pyrazolidone hydrochloride], the “% weight deviation from control” value [1] is reported as -10.9%, the LD50 (LD50's in mice) is reported as 500 mg/kg and the “Percent change in amount of food consumed (Mean ± S.E.M.)” value (“Percent change in amount” below) ([2]; 25 mg/kg p.o. once daily, Treatment Day 2) is reported as -1 ±6%. The “Percent change in amount” value ([2]; after 25 mg/kg p.o. once daily, Recovery Day 2 (treatment stopped)) was -8 ±7%, the “Percent change in amount” value ([2]; after 25 mg/kg p.o. once daily, Recovery Day 3 (treatment stopped)) was “+13 ±8%” and the “Percent Change from Initial Bodyweight (Mean ± S.E.M.) Day 5” value (from here on “Percent Change … (Mean ± S.E.M.) Day 5”) ([3]; 10 mg/kg p.o. daily) was -2.7 ± 0.3%. For the same molecule, the “Percent Change from Initial Bodyweight (Mean ± S.E.M.) Day 10” value (shortened to “Percent Change … (Mean ± S.E.M.) Day 10”) ([3]; 10 mg/kg p.o. daily) was -1.1 ± 0.4%, the “Percent Change … (Mean ± S.E.M.) Day 5” value ([3]; 15 mg/kg p.o. daily) was -3.3 ± 1.0% and the “Percent Change … (Mean ± S.E.M.) Day 10” value ([3]; 15 mg/kg p.o. daily) was -9.6 ± 1.7%. For the same molecule, the “Percent Change … (Mean ± S.E.M.) Day 5” value ([3]; 20 mg/kg p.o. daily) was -3.8 ± 0.6% and the “Percent Change … (Mean ± S.E.M.) Day 10” value ([3]; 20 mg/kg p.o. daily) was -11.1 ± 1.8%.
For `CCCCCCCCCN1CCC(=O)N1.Cl` [n-nonyl, 1-(n-nonyl)-3-pyrazolidone hydrochloride], the LD50 (LD50's in mice) was 210 mg/kg.
`CCCCCCCCN1CCC(=O)N1.Cl` [n-octyl, 1-(n-octyl)-3-pyrazolidone hydrochloride] gave an LD50 (LD50's in mice) of 250 mg/kg.
`CCCCCCCCCCCN1CCC(=O)N1.Cl` [n-undecyl, 1-(n-undecyl)-3-pyrazolidone hydrochloride] showed an LD50 (LD50's in mice) of 350 mg/kg.
